As a reminder, the pIC50 is −log10 of the IC50, conventionally taken in molar units.

pIC50: −log10 of the molar value.

For this experiment, the target named is T1, ALDH1A3 (Homo sapiens, UniProt P47895).
T1 sequence (P47895 2-512): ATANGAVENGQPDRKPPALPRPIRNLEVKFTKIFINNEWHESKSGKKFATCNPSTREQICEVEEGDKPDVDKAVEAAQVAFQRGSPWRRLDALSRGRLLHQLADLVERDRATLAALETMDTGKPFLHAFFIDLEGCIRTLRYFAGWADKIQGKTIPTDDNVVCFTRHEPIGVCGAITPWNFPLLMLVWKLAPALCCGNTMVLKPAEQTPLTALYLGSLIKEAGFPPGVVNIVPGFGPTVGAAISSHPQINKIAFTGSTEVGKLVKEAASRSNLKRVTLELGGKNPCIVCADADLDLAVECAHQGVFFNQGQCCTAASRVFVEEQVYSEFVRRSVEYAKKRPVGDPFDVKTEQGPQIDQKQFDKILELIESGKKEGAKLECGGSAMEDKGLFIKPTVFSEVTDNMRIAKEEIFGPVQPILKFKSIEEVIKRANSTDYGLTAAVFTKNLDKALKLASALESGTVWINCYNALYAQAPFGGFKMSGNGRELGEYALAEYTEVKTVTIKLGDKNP
The experiment is described as follows: Aldefluor assay in A375 cells; also recombinant human ALDH1a3 in crude bacterial lysate (resazurin/diaphorase-coupled). The class given is cell-based. For orientation: The colour change of resazurin is a common sign of viable cells or microbes.

Consider `CCc1cnccc1C(=O)Nc1cc2c(cc1F)NC(=O)CC2` [KOTX1], for which the pIC50 was 8.29.
